Test results from patent US9796733B2, “Imidazo-pyrazine derivatives useful as soluble guanylate cyclase activators” (Merck Sharp & Dohme Corp., priority 2014, dated 2017).

Tests used:
sGC α1/β1 heterodimer = molecular target: T1, sGC α1/β1 heterodimer (Homo sapiens, UniProt Q02108+Q02153); assay: Cell-based sGC functional assay (CASA assay): cGMP generation in CHO-K1/sGC cells, HTRF detection; details: for Emax: CHO-K1, percent activation relative to standard Compound A in CHO-K1/sGC cells, read-out: % Act.; for EC50: inflection point (IP) of cGMP generation in CHO-K1/sGC cells, 4P fit, activity expressed as percentage of Compound A
T1 construct: expressed in transfected cells; host or cells: CHO-K1 (clone #7, CHO-K1/sGC)
T1 sequence (Q02108 1-690): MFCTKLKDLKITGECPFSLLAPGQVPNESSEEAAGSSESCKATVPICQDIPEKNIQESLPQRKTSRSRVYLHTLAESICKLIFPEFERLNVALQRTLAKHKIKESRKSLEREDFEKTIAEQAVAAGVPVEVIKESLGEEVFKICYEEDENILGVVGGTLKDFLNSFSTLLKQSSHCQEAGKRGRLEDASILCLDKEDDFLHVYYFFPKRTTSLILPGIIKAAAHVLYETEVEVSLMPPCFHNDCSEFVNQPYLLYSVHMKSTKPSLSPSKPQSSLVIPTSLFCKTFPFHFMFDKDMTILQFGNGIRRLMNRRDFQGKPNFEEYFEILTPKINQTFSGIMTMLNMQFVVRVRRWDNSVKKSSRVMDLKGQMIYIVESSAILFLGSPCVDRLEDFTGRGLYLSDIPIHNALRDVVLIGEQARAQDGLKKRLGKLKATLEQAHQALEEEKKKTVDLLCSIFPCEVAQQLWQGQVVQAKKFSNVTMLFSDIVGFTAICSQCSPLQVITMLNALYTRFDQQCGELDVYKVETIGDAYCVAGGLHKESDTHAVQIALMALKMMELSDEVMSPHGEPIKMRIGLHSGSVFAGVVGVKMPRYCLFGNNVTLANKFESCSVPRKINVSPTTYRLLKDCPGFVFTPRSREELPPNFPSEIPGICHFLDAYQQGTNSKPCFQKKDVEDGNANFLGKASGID
T1 sequence (Q02153 1-619): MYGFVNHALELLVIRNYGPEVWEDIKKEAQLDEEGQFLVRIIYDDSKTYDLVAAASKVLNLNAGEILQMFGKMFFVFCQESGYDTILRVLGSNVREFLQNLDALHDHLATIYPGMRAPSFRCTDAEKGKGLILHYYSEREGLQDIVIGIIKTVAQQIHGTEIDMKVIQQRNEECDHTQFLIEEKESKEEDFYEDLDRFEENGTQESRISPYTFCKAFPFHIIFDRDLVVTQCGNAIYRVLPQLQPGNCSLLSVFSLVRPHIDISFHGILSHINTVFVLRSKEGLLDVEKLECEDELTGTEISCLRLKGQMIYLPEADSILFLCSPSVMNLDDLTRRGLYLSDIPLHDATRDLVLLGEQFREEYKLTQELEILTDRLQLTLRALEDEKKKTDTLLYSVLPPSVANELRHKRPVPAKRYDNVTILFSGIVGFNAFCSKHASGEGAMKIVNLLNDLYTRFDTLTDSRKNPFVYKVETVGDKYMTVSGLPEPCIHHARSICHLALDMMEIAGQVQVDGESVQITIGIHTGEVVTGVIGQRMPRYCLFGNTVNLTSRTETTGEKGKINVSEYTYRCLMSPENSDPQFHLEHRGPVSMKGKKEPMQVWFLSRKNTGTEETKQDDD
How it was run: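 cGMP was quantified by HTRF after 1 hr, 37° C exposure of thawed CHO-K1 cells expressing sGC α1/β1 to compound, with or without 1 μM DETA-NO. IBMX (0.5 mM) blocked cGMP breakdown, and DMSO was 2.5% final. Percent of standard Compound A's maximal cGMP was fitted (4P) for inflection point.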

[1] = tested on: Spontaneously hypertensive rats (SHR); assay: Acute efficacy in spontaneously hypertensive rats (SHR): telemetry blood pressure lowering after a single oral dose; assay type: in vivo, rat
How it was run: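 Values are the maximum peak fall in systolic pressure after one oral dose (mpk), computed hourly against baseline from a vehicle dose given the day before. Rats were conscious, male, spontaneously hypertensive, with femoral-aortic telemetry recording 30 s every 10 min, 14 days post-surgery.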

Structure (SMILES)	Emax (sGC α1/β1 heterodimer) [%]	EC50 (sGC α1/β1 heterodimer) [nM]	Maximum peak decrease of systolic blood pressure (SBP) in SHR, Cat. ([1]; P.O. 3.0 mpk)	Maximum peak decrease of systolic blood pressure (SBP) in SHR, Cat. ([1]; P.O. 1.0 mpk)	Maximum peak decrease of systolic blood pressure (SBP) in SHR, Cat. ([1]; P.O. 0.3 mpk)
CC1(c2ccc(F)cn2)C(=O)Nc2nc(-c3cn4ccnc4c(CCC(F)(F)F)n3)nc(N)c21 (stereo not drawn) [Example 202B, 4-amino-5-(5-fluoropyridin-2-yl)-5-methyl-2-(8-(3,3,3-trifluoropropyl)imidazo[1,2-a]pyrazin-6-yl)-5H-pyrrolo[2,3-d]pyrimidin-6(7H)-one]	91	870	B (Category B=SBP in SHRs 20-40 mmHg)		
Nc1nc(-c2cn3ccnc3c(CCCC(F)(F)F)n2)nc2c1C(c1ccc(OC(F)(F)F)cc1)(C1CC1)C(=O)N2 (stereo not drawn) [Example 347A, 4-amino-5-cyclopropyl-2-(8-(4,4,4-trifluorobutyl)imidazo[1,2-a]pyrazin-6-yl)-5-(4-(trifluoromethoxy)phenyl)-5H-pyrrolo[2,3-d]pyrimidin-6(7H)-one]	107	131		B (Category B=SBP in SHRs 20-40 mmHg)	
CC1(c2nnc(C3CC3)o2)C(=O)Nc2nc(-c3cn4ccnc4c(Cc4ccc(F)cc4)n3)nc(N)c21 (stereo not drawn) [Example 34A, 4-amino-5-(5-cyclopropyl-1,3,4-oxadiazol-2-yl)-2-(8-(4-fluorobenzyl)imidazo[1,2-a]pyrazin-6-yl)-5-methyl-5H-pyrrolo[2,3-d]pyrimidin-6(7H)-one]	150	339	B (Category B=SBP in SHRs 20-40 mmHg)		
CC1(c2ccc(Cl)c(Cl)c2)C(=O)Nc2nc(-c3cn4ccnc4c(CCC(F)(F)F)n3)nc(N)c21 (stereo not drawn) [Example 186A, 4-amino-5-(3,4-dichlorophenyl)-5-methyl-2-(8-(3,3,3-trifluoropropyl)imidazo[1,2-a]pyrazin-6-yl)-5H-pyrrolo[2,3-d]pyrimidin-6(7H)-one]	129	207		B (Category B=SBP in SHRs 20-40 mmHg)	
CCC1(c2ccc(F)cc2)C(=O)Nc2nc(-c3cn4ccnc4c(CCC(F)(F)C(F)(F)F)n3)nc(N)c21 (stereo not drawn) [Example 239A, 4-amino-5-ethyl-5-(4-fluorophenyl)-2-(8-(3,3,4,4,4-pentafluorobutyl)imidazo [1,2-a]pyrazin-6-yl)-5H-pyrrolo[2,3-d]pyrimidin-6(7H)-one]	97	53			B (Category B=SBP in SHRs 20-40 mmHg)
CC1(C)C(=O)Nc2nc(-c3cn4ccnc4c(Cc4cccc(F)c4)n3)nc(N)c21 [Example 71, 4-amino-2-(8-(3-fluorobenzyl)imidazo[1,2-a]pyrazin-6-yl)-5,5-dimethyl-5H-pyrrolo[2,3-d]pyrimidin-6(7H)-one]	109	44		C (Category C=SBP in SHRs>40 mmHg)	
CC(C)Cc1nc(-c2nc(N)c3c(n2)NC(=O)C3(C)c2ccc(Cl)cc2)cn2ccnc12 (stereo not drawn) [Example 20A, 4-amino-5-(4-chlorophenyl)-2-(8-isobutylimidazo[1,2-a]pyrazin-6-yl)-5-methyl-5H-pyrrolo[2,3-d]pyrimidin-6(7H)-one]	108	231		C (Category C=SBP in SHRs>40 mmHg)	
CC1(C(=O)NC2CC2)C(=O)Nc2nc(-c3cn4ccnc4c(CCC(F)(F)C(F)(F)F)n3)nc(N)c21 (stereo not drawn) [Example 60A, 4-amino-N-cyclopropyl-5-methyl-6-oxo-2-(8-(3,3,4,4,4-pentafluorobutyl)imidazo[1,2-a]pyrazin-6-yl)-6,7-dihydro-5H-pyrrolo[2,3-d]pyrimidine-5-carboxamide]	41	88		A (Category A=SBP in SHRs<20 mmHg)	
CC1(c2ccc(C(F)(F)F)cn2)C(=O)Nc2nc(-c3cn4ccnc4c(CCCC(F)(F)F)n3)nc(N)c21 (stereo not drawn) [Example 213B, 4-amino-5-methyl-2-(8-(4,4,4-trifluorobutyl)imidazo[1,2-a]pyrazin-6-yl)-5-(5-(trifluoromethyl)pyridin-2-yl)-5H-pyrrolo[2,3-d]pyrimidin-6(7H)-one]	89	100			B (Category B=SBP in SHRs 20-40 mmHg)
CCCCc1nc(-c2nc(N)c3c(n2)NC(=O)C3(c2ncc(Cl)cn2)C2CC2)cn2ccnc12 (stereo not drawn) [Example 372A, 4-amino-2-(8-butylimidazo[1,2-a]pyrazin-6-yl)-5-(5-chloropyrimidin-2-yl)-5-cyclopropyl-5H-pyrrolo[2,3-d]pyrimidin-6(7H)-one]	187	239		C (Category C=SBP in SHRs>40 mmHg)	
CCCc1nc(-c2nc(N)c3c(n2)NC(=O)C3(C)c2ccc(Cl)c(F)c2)cn2ccnc12 (stereo not drawn) [Example 124B, 4-amino-5-(4-chloro-3-fluorophenyl)-5-methyl-2-(8-propylimidazo[1,2-a]pyrazin-6-yl)-5H-pyrrolo[2,3-d]pyrimidin-6(7H)-one]	103	34			B (Category B=SBP in SHRs 20-40 mmHg)
CCC1(c2ccc(F)cc2)C(=O)Nc2nc(-c3cn4ccnc4c(CCCC(F)(F)F)n3)nc(N)c21 (stereo not drawn) [Example 215A, 4-amino-5-ethyl-5-(4-fluorophenyl)-2-(8-(4,4,4-trifluorobutyl)imidazo[1,2-a]pyrazin-6-yl)-5H-pyrrolo[2,3-d]pyrimidin-6(7H)-one]	107	351			B (Category B=SBP in SHRs 20-40 mmHg)
CC(C)c1ccc(C2(C)C(=O)Nc3nc(-c4cn5ccnc5c(CCC(F)(F)C(F)(F)F)n4)nc(N)c32)nc1 (stereo not drawn) [Example 225A, 4-amino-5-(5-isopropylpyridin-2-yl)-5-methyl-2-(8-(3,3,4,4,4-pentafluorobutyl)imidazo [1,2-a]pyrazin-6-yl)-5H-pyrrolo[2,3-d]pyrimidin-6(7H)-one]	82	166		A (Category A=SBP in SHRs<20 mmHg)	
Nc1nc(-c2cn3ccnc3c(CCCC(F)(F)F)n2)nc2c1C(c1ccc(C(F)F)cn1)(C1CC1)C(=O)N2 (single isomer, unassigned) [Example 378B, 4-amino-5-cyclopropyl-5-(5-(difluoromethyl)pyridin-2-yl)-2-(8-(4,4,4-trifluorobutyl)imidazo[1,2-a]pyrazin-6-yl)-5H-pyrrolo[2,3-d]pyrimidin-6(7H)-one]	92	373		B (Category B=SBP in SHRs 20-40 mmHg)	
CC1(c2ccc(F)cc2)C(=O)Nc2nc(-c3cn4ccnc4c(-c4ccccc4)n3)nc(N)c21 (stereo not drawn) [Example 112A, 4-amino-5-(4-fluorophenyl)-5-methyl-2-(8-phenylimidazo[1,2-a]pyrazin-6-yl)-5H-pyrrolo[2,3-d]pyrimidin-6(7H)-one]	89	289	B (Category B=SBP in SHRs 20-40 mmHg)		
COc1cn2cc(-c3nc(N)c4c(n3)NC(=O)C4(C)c3ccc(F)cc3)nc(CCCC(F)(F)F)c2n1 (stereo not drawn) [Example 176A, 4-amino-5-(4-fluorophenyl)-2-(2-methoxy-8-(4,4,4-trifluorobutyl)imidazo[1,2-a]pyrazin-6-yl)-5-methyl-5H-pyrrolo[2,3-d]pyrimidin-6(7H)-one]	107	79		B (Category B=SBP in SHRs 20-40 mmHg)	
